Measured values taken from patent US20080145858A1, “DETECTION AND IDENTIFICATION OF TOXICANTS BY MEASUREMENT OF GENE […]” (priority 2003, published 2008).

Tested on: Xenopus laevis cleavage stage embryos (stage 8)
Experiment: Xenopus cDNA microarray, differential gene expression after PMA treatment during cleavage stage (Group I)
Type: in vivo
Conditions: PMA 100 ng/ml, stage 8
Text: Specifically, the method and screen of the present invention function as follows. EST clones produced from Xenopus laevis unfertilized eggs were used in the present study with ˜1,200 EST clones from a 18,500 EST clone set selected for production of a Xenopus cDNA microarray. The Xenopus microarray was used to measure the effect of chemical treatment on Xenopus embryo gene regulation. The chemical treatment was a phorbol ester, PMA. Xenopus eggs were obtained from females induced for ovulation and fertilized in vitro. Control Xenopus laevis embryos were allowed to develop to stage 8 blastula or stage 15 neurula. Treated embryos were exposed to PMA during cleavage stage or during neurulation with end points of blastula (stage 8) or neurula (stage 15). Specifically, PMA 100 ng/ml was added to the incubation media during cleavage stages for evaluation in stage 8 embryo or PMA was added during neural induction for evaluation in stage 15 embryos. RNA extracted from the embryos was used to generate fluorescent cDNA probes for Xenopus microarray analyses to measure differential gene expression with and without the phorbol ester treatment. Analysis was performed using paired RNA samples to compare PMA-treated and untreated embryos: Group I measured the effects of PMA-treatment during the cleavage stage in stage 8 embryos and Group II measured the effects of PMA-treatment during neurulation in stage 15 embryos. Group III measured the change in gene expression between stage 8 and stage 15 embryos.
cDNA fragments were obtained by PCR replication of Xenopus laevis unfertilized egg cDNA inserts, purified, quantitated and loaded onto glass chips by robotics. In addition to the selected ˜1,200 genes, 64 lambda Q gene, an internal control cDNA (Genomic Solutions, Inc., Ann Arbor, Mich.) was loaded on the chip. The insert DNA from ˜1,200 clones were PCR amplified using forward and reverse primers (GF.200 primers, Research Genetics, Huntsville, Ala.). A second PCR was carried out using 1 μl of the primary PCR (20 μl) for template. Excess dNTPs, polymerase and other PCR artifacts were removed from the secondary PCR reactions using Millipore Multiscreen plates (Millipore Corporation, Bedford, Mass.) using the standard protocol. The purity of the PCR products was assessed by electrophoresis and documented using an Alphalmager 1000 Digital Imaging System (Alpha Innotech Corporation, San Leandro, Calif.). The DNA obtained by PCR was quantitated using PicoGreen (Molecular Probes, Eugene, Oreg.). The DNA was denatured and arrayed onto amino-silane coated microscope slides (CMT-GAPS coated slides, Corning, Corning, N.Y.) using a Flexys robotic workstation (Genomic Solutions Inc.). The ˜1,200 PCR products were arrayed in duplicate on each slide and cross-linked. Each gene chip contained duplicate cDNA samples.
Total RNA was prepared from embryos treated in three separate dishes per treatment group that were pooled. Total RNA was isolated from the frog embryos (1,200 embryos for each probe production) using TRIzol extraction (Gibco BRL, Grand Island, N.Y.) and Qiagen RNeasy kits (Qiagen, Valencia, Calif.). The ethanol precipitated RNA was resuspended in RNase-free water, quantitated with RiboGreen (Molecular Probes, Eugene, Oreg.). Total RNA was further purified using oligoTex mRNA maxi kit (Qiagen Co.) with the bound mRNA eluted with minimum volume of elution buffer and precipitated with ethanol. The recovery rate of mRNA by the ethanol precipitation method was ˜70%. Cy3- or Cy5-tagged probes were produced from an mRNA mixture (20 μl) of Xenopus mRNA (5 μg) and lambda Q gene mRNA (3.5 ng) reverse-transcribed with oligo(dT)18-22 primer and dNTPs and the reverse-transcribed cDNA was cross-linked with Cy3 or Cy5 as described in Clontech Atlas™ Glass Fluorescent Labeling kit manual (www.clontech.com). After hydrolysis of the RNA and purification of the probe (Centricon 50, Millipore, Bedford, Mass.), the cDNA in TE buffer was quantitated by absorbance at 260 nm. […]

CCCCCCCCCCCCCC(=O)O[C@@H]1[C@@H](C)[C@@]2(O)[C@@H](C=C(CO)C[C@]3(O)C(=O)C(C)=C[C@@H]23)[C@@H]2C(C)(C)[C@]12OC(C)=O [PMA, phorbol 12-myristate 12-acetate]
Normalized by Landmarks (1.59) (PBX0140D01 mRNA): 3.66 | Normalized by all Data Points (1.28) (PBX0140D01 mRNA): 2.94 | Ratio of Medians (Cy5/Cy3) First Spot (PBX0140D01 mRNA): 2.09 | Ratio of Medians (Cy5/Cy3) Mean (PBX0140D01 mRNA): 2.30 ± 0.20 | Ratio of Medians (Cy5/Cy3) Second Spot (PBX0140D01 mRNA): 2.50 | (CY3/CY5) by Landmarks (1.6) (PBX0140F01 mRNA): 2.39 | (CY3/CY5) by all Data Points (1.3) (PBX0140F01 mRNA): 3.83 | Normalization by Landmarks (1.6) (PBX0140F01 mRNA): 0.42 | Normalization by all Data Points (1.3) (PBX0140F01 mRNA): 0.26 | Ratio of Medians (Cy5/Cy3) First Spot (PBX0140F01 mRNA): 0.24 | Ratio of Medians (Cy5/Cy3) Mean (PBX0140F01 mRNA): 0.20 ± 0.04 | Ratio of Medians (Cy5/Cy3) Second Spot (PBX0140F01 mRNA): 0.16 | (CY3/CY5) by Landmarks (1.6) (PBX0140H03 mRNA): 3.52 | (CY3/CY5) by all Data Points (1.3) (PBX0140H03 mRNA): 5.64 | Normalization by Landmarks (1.6) (PBX0140H03 mRNA): 0.28 | Normalization by all Data Points (1.3) (PBX0140H03 mRNA): 0.18 | Ratio of Medians (Cy5/Cy3) First Spot (PBX0140H03 mRNA): 0.09 | Ratio of Medians (Cy5/Cy3) Mean (PBX0140H03 mRNA): 0.14 ± 0.05 | Ratio of Medians (Cy5/Cy3) Second Spot (PBX0140H03 mRNA): 0.19 | (CY3/CY5) by Landmarks (1.6) (PBX0141B03 mRNA): 1.74 | (CY3/CY5) by all Data Points (1.3) (PBX0141B03 mRNA): 2.78 | Normalization by Landmarks (1.6) (PBX0141B03 mRNA): 0.58 | Normalization by all Data Points (1.3) (PBX0141B03 mRNA): 0.36 | Ratio of Medians (Cy5/Cy3) First Spot (PBX0141B03 mRNA): 0.38 | Ratio of Medians (Cy5/Cy3) Mean (PBX0141B03 mRNA): 0.28 ± 0.10 | Ratio of Medians (Cy5/Cy3) Second Spot (PBX0141B03 mRNA): 0.18 | (CY3/CY5) by Landmarks (1.6) (PBX0141F12 mRNA): 3.56 | (CY3/CY5) by all Data Points (1.3) (PBX0141F12 mRNA): 5.70 | Normalization by Landmarks (1.6) (PBX0141F12 mRNA): 0.28 | Normalization by all Data Points (1.3) (PBX0141F12 mRNA): 0.18 | Ratio of Medians (Cy5/Cy3) First Spot (PBX0141F12 mRNA): 0.10 | Ratio of Medians (Cy5/Cy3) Mean (PBX0141F12 mRNA): 0.14 ± 0.03 | Ratio of Medians (Cy5/Cy3) Second Spot (PBX0141F12 mRNA): 0.17 | (CY3/CY5) by Landmarks (1.6) (PBX0141G06 mRNA): 1.67 | (CY3/CY5) by all Data Points (1.3) (PBX0141G06 mRNA): 2.67 | Normalization by Landmarks (1.6) (PBX0141G06 mRNA): 0.60 | Normalization by all Data Points (1.3) (PBX0141G06 mRNA): 0.38 | Ratio of Medians (Cy5/Cy3) First Spot (PBX0141G06 mRNA): 0.17 | Ratio of Medians (Cy5/Cy3) Mean (PBX0141G06 mRNA): 0.29 ± 0.12 | Ratio of Medians (Cy5/Cy3) Second Spot (PBX0141G06 mRNA): 0.41 | Normalized by Landmarks (1.59) (PBX0141G10 mRNA): 4.98 | Normalized by all Data Points (1.28) (PBX0141G10 mRNA): 4.01 | Ratio of Medians (Cy5/Cy3) First Spot (PBX0141G10 mRNA): 2.53 | Ratio of Medians (Cy5/Cy3) Mean (PBX0141G10 mRNA): 3.13 ± 0.59 | Ratio of Medians (Cy5/Cy3) Second Spot (PBX0141G10 mRNA): 3.72 | (CY3/CY5) by Landmarks (1.6) (PBX0142E01 mRNA): 2.64 | (CY3/CY5) by all Data Points (1.3) (PBX0142E01 mRNA): 4.23 | Normalization by Landmarks (1.6) (PBX0142E01 mRNA): 0.38 | Normalization by all Data Points (1.3) (PBX0142E01 mRNA): 0.24 | Ratio of Medians (Cy5/Cy3) First Spot (PBX0142E01 mRNA): 0.14 | Ratio of Medians (Cy5/Cy3) Mean (PBX0142E01 mRNA): 0.18 ± 0.04 | Ratio of Medians (Cy5/Cy3) Second Spot (PBX0142E01 mRNA): 0.22 | Normalized by Landmarks (1.59) (PBX0142E09 mRNA): 4.32 | Normalized by all Data Points (1.28) (PBX0142E09 mRNA): 3.48 | Ratio of Medians (Cy5/Cy3) First Spot (PBX0142E09 mRNA): 2.50 | Ratio of Medians (Cy5/Cy3) Mean (PBX0142E09 mRNA): 2.72 ± 0.21 | Ratio of Medians (Cy5/Cy3) Second Spot (PBX0142E09 mRNA): 2.93 | (CY3/CY5) by Landmarks (1.6) (PBX0142H06 mRNA): 2.52 | (CY3/CY5) by all Data Points (1.3) (PBX0142H06 mRNA): 4.04 | Normalization by Landmarks (1.6) (PBX0142H06 mRNA): 0.40 | Normalization by all Data Points (1.3) (PBX0142H06 mRNA): 0.25 | Ratio of Medians (Cy5/Cy3) First Spot (PBX0142H06 mRNA): 0.15 | Ratio of Medians (Cy5/Cy3) Mean (PBX0142H06 mRNA): 0.19 ± 0.04 | Ratio of Medians (Cy5/Cy3) Second Spot (PBX0142H06 mRNA): 0.23 | (CY3/CY5) by Landmarks (1.6) (PBX0143C01 mRNA): 2.54 | (CY3/CY5) by all Data Points (1.3) (PBX0143C01 mRNA): 4.07 | Normalization by Landmarks (1.6) (PBX0143C01 mRNA): 0.39 | Normalization by all Data Points (1.3) (PBX0143C01 mRNA): 0.25 | Ratio of Medians (Cy5/Cy3) First Spot (PBX0143C01 mRNA): 0.16 | Ratio of Medians (Cy5/Cy3) Mean (PBX0143C01 mRNA): 0.19 ± 0.03 | Ratio of Medians (Cy5/Cy3) Second Spot (PBX0143C01 mRNA): 0.22 | (CY3/CY5) by Landmarks (1.6) (PBX0143D10 mRNA): 1.57 | (CY3/CY5) by all Data Points (1.3) (PBX0143D10 mRNA): 2.51
